In US7772221B2, “Diaminopropane derived macrocycles as inhibitors of β amyloid production” (Bristol-Meyers Squibb Company, priority 2007, dated 2010):
Read-outs that look alike come from different tables or passages of the source.

Legend:
[1] = rcm bond, 1,2-dichloroethane, 60.0 °C
BACE1 enzyme = target: T1, BACE1 enzyme (Homo sapiens, UniProt P56817); assay: Radioligand displacement assay with a radiolabeled BACE inhibitor; assay type: binding; conditions: HEK293-9B.A1 cell homogenate overexpressing BACE1, 1 nM radioligand, pH 5.0, 1.5 hr at 25° C.; read-out: Activity Rating (activity based on IC50 values)
T1 construct: endogenous in cells; washed 48,000 x g membrane pellet / cell homogenate
Text: There are a number of methods by which inhibitors of the BACE enzyme can be identified experimentally. The enzyme can be obtained from membrane samples from natural tissues or cultured cells or can be expressed recombinantly in a host cell by well known methods of molecular biology. The whole enzyme or a portion thereof can be expressed, for example, in bacterial, insect or mammalian cells to obtain a catalytically active enzyme species. The enzymatic activity and/or ligand binding capability of the enzyme can be assessed within these membrane samples, or the enzyme can be purified to varying extents. As an illustrative example, the nucleic acid sequence encoding the pro and catalytic domains of human BACE can be appended on the 5′ end with an untranslated and signal sequence from the gene for acetylcholinesterase, and on the 3′ end with a sequence encoding a poly-histidine tag. This cDNA can then be expressed in Drosophila melanogaster S2 cells in which the signal and pro sequences of the transcribed/translated protein are removed by cellular proteases and the catalytic domain, appended by a C-terminal poly-histidine tag, is secreted out into the cellular medium. The enzyme can then be purified from the culture medium by nickel affinity chromatography by methods well known to those trained in the art [Mallender, W. et al., “Characterization of recombinant, soluble beta-secretase from an insect cell expression system.” Mol. Pharmacol. 2001, 59: 619-626]. Similar strategies for expressing and purifying various forms of BACE in bacterial, mammalian and other cell types would be known to one skilled in the art. A preferred method for determining the potency of a test compound in binding to the BACE enzyme is by monitoring the displacement of a suitable radioligand.
Radioligand displacement assays with a radiolabeled BACE inhibitor (WO 2004 013098, compound 3, where the methoxy group is substituted for C(^3H)3) were carried out using standard methods (Keen, M. (1999) in Receptor Binding Techniques (Walker, J. M. ed) p. 106 Humana Press, Totowa, N.J.). The HEK293-9B.A1 cell line, which overexpresses the BACE1 enzyme, was derived from HEK293 cells (Simmons, N. L. (1990) A cultured human renal epithelioid cell line responsive to vasoactive intestinal peptide. Exp. Physiol. 75:309-19.) by RAGE™ (Harrington, J. J. et al. (2001) Creation of genome-wide protein expression libraries using random activation of gene expression. Nat. Biotechnol. 19:440-5.; U.S. Pat. Nos. 6,410,266 and 6,361,972). T225 flask cultures of HEK293-9B.A1 were grown to 80% confluency in DMEM supplemented with 2 mM L-glutamine, 10 μg/mL penicillin, 10 μg/mL streptomycin, 3 μg/mL puromycin, 100 nM methotrexate, and 10% fetal bovine serum (Invitrogen, Carlsbad, Calif.), harvested, and resuspended at 2×10^8 cells per 10 mL of lysis buffer consisting of 50 mM HEPES pH 7.0 containing a protease inhibitor cocktail of AEBSF 104 μM, aprotinin 80 nM, leupeptin 2 μM, bestatin 4 μM, pepstatin A 1.5 μM, and E-64 1.4 μM (0.1% of protease inhibitor cocktail P8340, Sigma-Aldrich, St. Louis, Mo.) at 4° C. The resuspended cells were homogenized using a Polytron (Brinkman, Westbury, N.Y.) at setting 6 for 10 sec., then centrifuged at 48,000×g for 10 min. The resulting pellet was washed by repeating the resuspension, homogenization and centrifugation steps. The final pellet was resuspended in buffer at 4° C. to yield a total protein concentration of 5 mg/mL, then aliquots were frozen in liquid nitrogen for further storage at −70° C. Immediately before carrying out a binding assay, an aliquot of cell homogenate was thawed and diluted to a concentration of 100 μg/mL in assay buffer consisting of 50 mM HEPES pH 5.0 and 0.1% CHAPSO. […]

[2] = rcm bond

T1 sequence (P56817 46-501): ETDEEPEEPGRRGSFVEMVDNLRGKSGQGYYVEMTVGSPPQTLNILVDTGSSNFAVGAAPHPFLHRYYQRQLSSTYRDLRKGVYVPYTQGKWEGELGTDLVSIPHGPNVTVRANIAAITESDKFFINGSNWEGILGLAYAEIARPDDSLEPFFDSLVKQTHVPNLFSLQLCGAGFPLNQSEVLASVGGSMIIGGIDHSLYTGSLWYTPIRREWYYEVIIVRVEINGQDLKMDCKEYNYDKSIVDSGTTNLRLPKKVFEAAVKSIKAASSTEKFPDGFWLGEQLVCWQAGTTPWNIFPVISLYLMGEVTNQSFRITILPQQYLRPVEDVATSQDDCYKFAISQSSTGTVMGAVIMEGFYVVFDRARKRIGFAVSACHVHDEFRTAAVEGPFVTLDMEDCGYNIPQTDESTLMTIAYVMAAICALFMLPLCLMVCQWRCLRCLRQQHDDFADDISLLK

## CC(C)C[C@@H]1COCC=CCC[C@H](N(C)S(=O)(=O)CCC(F)(F)F)C(=O)N[C@@H](Cc2cc(F)cc(F)c2)[C@H](O)CN1 [Example 42, N-((3R,6R,7S,10S)-7-(3,5-difluorobenzyl)-6-hydroxy-3-isobutyl-9-oxo-1-oxa-4,8-diazacyclopentadec-13-en-10-yl)-3,3,3-trifluoro-N-methylpropane-1-sulfonamide]
[1]; from C=CCC[C@@H](C(=O)N[C@@H](Cc1cc(F)cc(F)c1)[C@H](O)CN[C@@H](COCC=C)CC(C)C)N(C)S(=O)(=O)CCC(F)(F)F, 15-membered ring, Hoveyda-Grubbs (16 mol%), 19.0 mM, 16.0 h
  ring closure, isolated yield: 19%
BACE1 enzyme
  IC50: > 500 nM

## CCCC[C@H](C)C(=O)N(C)[C@H]1CC=CCOc2ccc(OC)cc2CNC[C@@H](O)[C@H](Cc2ccccc2)NC1=O [Example 59, (S)-N-((6S,9S,10R)-9-benzyl-10-hydroxy-15-methoxy-7-oxo-2,5,6,7,8,9,10,11,12,13-decahydrobenzo[b][1,5,9]oxadiazacyclopentadecin-6-yl)-N,2-dimethylhexanamide]
[2]; from C=CCOc1ccc(OC)cc1CNC[C@@H](O)[C@H](Cc1ccccc1)NC(=O)[C@H](CC=C)N(C)C(=O)[C@@H](C)CCCC, 15-membered ring, Hoveyda-Grubbs II (21 mol%), DCM, 4.3 mM, 40.0 °C, 4.0 h
  ring closure, yield after HPLC: 49%
BACE1 enzyme
  IC50: > 500 nM

## CCCCCS(=O)(=O)N(C)[C@H]1CC=CCCCc2ccc(C(F)(F)F)cc2CNC[C@@H](O)[C@H](Cc2cc(F)cc(F)c2)NC1=O [Example 40, N-((4R,5S,8S)-5-(3,5-difluorobenzyl)-4-hydroxy-17-(trifluoromethyl)-7-oxo-1,2,3,4,5,6,7,8,9,12,13,14-dodecahydrobenzo[g][1,5]diazacyclohexadecin-8-yl)-N-methylpentane-1-sulfonamide]
[1]; from C=CCCCc1ccc(C(F)(F)F)cc1CNC[C@@H](O)[C@H](Cc1cc(F)cc(F)c1)NC(=O)[C@H](CC=C)N(C)S(=O)(=O)CCCCC, 16-membered ring, Hoveyda-Grubbs (19 mol%), 6.5 mM, 16.0 h
  ring closure, isolated yield: 32%
BACE1 enzyme
  IC50: 10 to 500 nM

## CCCCCS(=O)(=O)N(C)[C@H]1CC=CCCCc2ccc(C)cc2CNC[C@@H](O)[C@H](Cc2cc(F)cc(F)c2)NC1=O
[1]; from (S)-N-((2S,3R)-1-(3,5-difluorophenyl)-3-hydroxy-4-(5-methyl-2-(pent-4-enyl)benzylamino)butan-2-yl)-2-(N-methylpentylsulfonamido) pent-4-enamide, 16-membered ring, Hoveyda-Grubbs (20 mol%), 6.3 mM
  ring closure, isolated yield: 18%

## CCCC(CCC)C(=O)N(C)[C@H]1CC=CCO[C@@H]2C[C@H](NC[C@@H](O)[C@H](Cc3ccccc3)NC1=O)c1cc(OC)ccc12
[2]; from C=CCO[C@@H]1C[C@H](NC[C@@H](O)[C@H](Cc2ccccc2)NC(=O)[C@H](CC=C)N(C)C(=O)C(CCC)CCC)c2cc(OC)ccc21, 15-membered ring, Hoveyda-Grubbs II (9 mol%), DCM, 25.0 °C, 16.0 h
  ring closure, yield after HPLC: 34%

## CCCOc1ccc2c(c1)[C@@H]1C[C@H]2OCC=CCCCC(=O)N[C@@H](Cc2cc(F)cc(F)c2)[C@H](O)CN1
[2]; from C=CCCCC(=O)N[C@@H](Cc1cc(F)cc(F)c1)[C@H](O)CN[C@H]1C[C@@H](OCC=C)c2ccc(OCCC)cc21, 16-membered ring, Hoveyda-Grubbs II, DCM, 25.0 °C, 16.0 h
  ring closure, yield after HPLC: 20%

## COc1ccc2c(c1)[C@@H]1CC2N(C(=O)OCc2ccccc2)CCC=CC[C@H](N(C)C(C)=O)C(=O)N[C@@H](Cc2ccccc2)[C@H](O)CN1
[2]; from C=CCCN(C(=O)OCc1ccccc1)C1C[C@H](NC[C@@H](O)[C@H](Cc2ccccc2)NC(=O)[C@H](CC=C)N(C)C(C)=O)c2cc(OC)ccc21, 16-membered ring
  ring closure, yield after HPLC: 83%

## CCCCCS(=O)(=O)N(C)[C@H]1CC=CCO[C@@H]2Cc3ccc(OC)cc3[C@H]2NC[C@@H](O)[C@H](Cc2ccccc2)NC1=O (racemic) [Example 26, pentane-1-sulfonic acid ((1R,7S,10S,11R,14R)-10-benzyl-11-hydroxy-17-methoxy-8-oxo-2-oxa-9,13-diaza-tricyclo[12.7.0.0^15,20]henicosa-4,15(20),16,18-tetraen-7-yl)-methyl-amide and pentane-1-sulfonic acid ((1S,7S,10S,11R,14S)-10-benzyl-11-hydroxy-17-methoxy-8-oxo-2-oxa-9,13-diaza-tricyclo[12.7.0.0^15,20]henicosa-4,15(20),16,18-tetraen-7-yl)-methyl-amide]
BACE1 enzyme
  IC50: > 500 nM

## COc1ccc2c(c1)[C@@H]1C[C@H]2OCC=CCC[C@H](N(C)S(=O)(=O)CCC(F)(F)F)C(=O)N[C@@H](CC(C)C)[C@H](O)CN1 [Example 70, 3,3,3-trifluoro-propane-1-sulfonic acid ((1S,4R,5S,8S,15R)-4-hydroxy-5-isobutyl-19-methoxy-7-oxo-14-oxa-2,6-diaza-tricyclo[13.6.1.0^16,21]docosa-11,16(21),17,19-tetraen-8-yl)-methyl-amide]
BACE1 enzyme
  IC50: < 10 nM

## CC(C)C[C@@H]1NC(=O)CCCC=CCO[C@@H]2C[C@H](NC[C@H]1O)c1cc(OC(C)C)ccc12 [Example 79, (1S,4R,5S,15R)-4-hydroxy-5-isobutyl-19-isopropoxy-14-oxa-2,6-diaza-tricyclo[13.6.1.0^16,21]docosa-11,16(21),17,19-tetraen-7-one]
BACE1 enzyme
  IC50: > 500 nM
